Reference: US20220089592A1, “IMIDAZO[1,2-A]PYRIDINYL DERIVATIVES AS IRAK4 INHIBITORS” (priority 2019, published 2022)

Molecular target: T1, IRAK4 (Homo sapiens, UniProt Q9NWZ3)
T1 sequence (Q9NWZ3 1-460): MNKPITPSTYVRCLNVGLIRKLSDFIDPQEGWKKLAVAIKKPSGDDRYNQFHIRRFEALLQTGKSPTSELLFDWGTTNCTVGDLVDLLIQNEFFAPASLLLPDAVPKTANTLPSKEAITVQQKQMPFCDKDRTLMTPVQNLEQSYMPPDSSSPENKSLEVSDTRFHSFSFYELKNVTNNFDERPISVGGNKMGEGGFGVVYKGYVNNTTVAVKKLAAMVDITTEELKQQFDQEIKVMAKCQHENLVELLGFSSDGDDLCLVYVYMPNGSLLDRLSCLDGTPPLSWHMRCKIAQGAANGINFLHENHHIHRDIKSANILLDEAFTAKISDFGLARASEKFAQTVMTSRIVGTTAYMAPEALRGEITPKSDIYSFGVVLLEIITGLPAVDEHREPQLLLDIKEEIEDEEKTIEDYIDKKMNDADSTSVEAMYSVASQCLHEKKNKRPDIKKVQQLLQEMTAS
Experiment: 2-hour 1 mM ATP IRAK4 Biochemical assay (as above, but with 100 pM IRAK4 and 1 mM ATP)
Settings: IRAK4 MSD BIOCHEMICAL (1 mM ATP) IC50 (μM), 100 pM IRAK4, 2 hours
Experimental: The 2-hour 10 μM ATP Biochemical Assay employs a MesoScale Detection (MSD) format.
The activity is quenched with 11 μl of 70 mM EDTA, pH 8.
To detect the phosphorylated biotinylated peptide substrate, 30 μl of the quenched reaction mixture is added to equivalent wells of a 384 well streptavidin coated MesoScale plate (Meso Scale Discovery #L21SA-1). After a 1 hour incubation of the plate for 1 hour at room temperature with gentle mixing, the plate wells are washed 3 times with 50 mM Tris, pH 7.5, 150 mM NaCl, 0.02% Tween-20.
A 25 μl volume of 1:500 anti-P-Threonine Rabbit polyclonal Antibody plus 1:500 Goat-anti-Rabbit Sulfo Tag Antibody (Meso Scale Discovery R32AB-1) in 50 mM Tris, pH 7.5, 150 mM NaCl, 0.02% Tween-20 plus 2% BSA is then added to each well. After a 1-hour incubation of the plate for 1 hour at room temperature with gentle mixing, the plate wells are washed, 3 times with 50 mM Tris, pH 7.5, 150 mM NaCl, 0.02% Tween-20. A 40 μl volume of 2×MSD Read Buffer (Meso Scale Discovery R92TC-1) is added to each well, and the plate is read immediately in an MSD Plate Reader (Meso Scale Discovery).
The 2-hour 1 mM ATP IRAK4 Biochemical assay was performed as described above, but with 100 pM IRAK4 and 1 mM ATP.

| Compound | IC50 [µM] |
| --- | --- |
| CC1(COc2cc3nc(C4CCOCC4)cn3cc2NC(=O)c2cccc(C(F)F)n2)CCOC1 (stereo not shown) [Example 197, 6-(difluoromethyl)-N-(7-((3-methyltetrahydrofuran-3-yl)methoxy)-2-(tetrahydro-2H-pyran-4-yl)imidazo[1,2-a]pyridin-6-yl)picolinamide] | 0.004 |
| CC12CC(c3cn4cc(NC(=O)c5cccc(C(F)F)n5)nc(O)c4n3)(CO1)C2 [Example 200, 6-(difluoromethyl)-N-(8-hydroxy-2-(1-methyl-2-oxabicyclo[2.1.1]hexan-4-yl)imidazo[1,2-a]pyrazin-6-yl)picolinamide] | 0.06 |
| CCOc1nc(NC(=O)c2cccc(C(F)F)n2)cn2cc(C34COC(C)(C3)C4)nc12 [Example 201, 6-(difluoromethyl)-N-(8-ethoxy-2-(1-methyl-2-oxabicyclo[2.1.1]hexan-4-yl)imidazo[1,2-a]pyrazin-6-yl)picolinamide] | 0.004 |
| CCOc1cc2nc(C3CCOCC3)cn2cc1NC(=O)c1cccc(CC)n1 [Example 217, N-(7-ethoxy-2-(tetrahydro-2H-pyran-4-yl)imidazo[1,2-a]pyridin-6-yl)-6-ethylpicolinamide] | 0.001 |
| CCOc1cc2nc(C3C4COCC43)cn2cc1NC(=O)c1ccn(CC(F)(F)F)n1 (stereo not shown) [Example 235, N-(2-(3-oxabicyclo[3.1.0]hexan-6-yl)-7-ethoxyimidazo[1,2-a]pyridin-6-yl)-1-(2,2,2-trifluoroethyl)-1H-pyrazole-3-carboxamide] | 0.023 |
| COc1cc(NC(=O)c2csc(C3CC3)n2)cn2cc(C3CCOCC3)nc12 [Example 244, 2-cyclopropyl-N-(8-methoxy-2-(tetrahydro-2H-pyran-4-yl)imidazo[1,2-a]pyridin-6-yl)thiazole-4-carboxamide] | 0.028 |
| CC(C)Oc1cc2nc(C(C)(C)C(=O)O)cn2cc1NC(=O)c1cccc(C(F)F)n1 [Example 262, 2-(6-(6-(difluoromethyl)picolinamido)-7-isopropoxyimidazo[1,2-a]pyridin-2-yl)-2-methylpropanoic acid] | 0.006 |
| Cc1nn(C)cc1-c1cn2cc(NC(=O)c3cccc(C(F)F)n3)c(OC(C)C)cc2n1 [Example 263, 6-(difluoromethyl)-N-(2-(1,3-dimethyl-1H-pyrazol-4-yl)-7-isopropoxyimidazo[1,2-a]pyridin-6-yl)picolinamide] | 0.001 |
| CC(C)Oc1cc2nc(-c3cn(C)nc3C(F)F)cn2cc1NC(=O)c1cccc(C(F)F)n1 [Example 264, 6-(difluoromethyl)-N-(2-(3-(difluoromethyl)-1-methyl-1H-pyrazol-4-yl)-7-isopropoxyimidazo[1,2-a]pyridin-6-yl)picolinamide] | 0.002 |
| CCOc1c(NC(=O)c2cccc(C(F)F)n2)cn2cc(C3CCOCC3)nc2c1Cl [Example 272, N-(8-chloro-7-ethoxy-2-(tetrahydro-2H-pyran-4-yl)imidazo[1,2-a]pyridin-6-yl)-6-(difluoromethyl)picolinamide] | 0.003 |
| CC12CC(c3cn4cc(NC(=O)c5cccc(C(F)F)n5)ncc4n3)(CO1)C2 [Example 274, 6-(difluoromethyl)-N-(2-(1-methyl-2-oxabicyclo[2.1.1]hexan-4-yl)imidazo[1,2-a]pyrazin-6-yl)picolinamide] | 0.068 |
| COc1nc(NC(=O)c2cccc(C(F)F)n2)cn2cc(C3COCCO3)nc12 (stereo not shown) [Example 278, N-(2-(1,4-dioxan-2-yl)-8-methoxyimidazo[1,2-a]pyrazin-6-yl)-6-(difluoromethyl)picolinamide] | 0.023 |
| O=C(Nc1cc(OCC(F)F)c2nc(C3CCOCC3)cn2c1)c1cccc(C(F)F)n1 [Example 289, N-(8-(2,2-difluoroethoxy)-2-(tetrahydro-2H-pyran-4-yl)imidazo[1,2-a]pyridin-6-yl)-6-(difluoromethyl)picolinamide] | 0.006 |

Results, then the compound that gave them:

| IC50 [µM] | Compound |
| --- | --- |
| 0.001 | O=C(Nc1cn2cc(C3CCOCC3)nc2cc1OCC1CC1(F)F)c1cccc(C(F)F)n1 (stereo not shown) [Example 196, N-(7-((2,2-difluorocyclopropyl)methoxy)-2-(tetrahydro-2H-pyran-4-yl)imidazo[1,2-a]pyridin-6-yl)-6-(difluoromethyl)picolinamide] |
| 0.001 | O=C(Nc1cn2cc(C3CCOCC3)nc2cc1OCC1(C(F)F)CCC1)c1cccc(C(F)F)n1 [Example 198, 6-(difluoromethyl)-N-(7-((1-(difluoromethyl)cyclobutyl)methoxy)-2-(tetrahydro-2H-pyran-4-yl)imidazo[1,2-a]pyridin-6-yl)picolinamide] |
| 0.016 | CC12CC(c3cn4cc(NC(=O)c5cccc(C(F)F)n5)nc(OCc5ccccc5)c4n3)(CO1)C2 [Example 199, N-(8-(benzyloxy)-2-(1-methyl-2-oxabicyclo[2.1.1]hexan-4-yl)imidazo[1,2-a]pyrazin-6-yl)-6-(difluoromethyl)picolinamide] |
| 0.044 | CC(C)Oc1cc2nc(C3CCOCC3)cn2cc1NC(=O)c1cc(C(F)F)cs1 [Example 232, 4-(difluoromethyl)-N-(7-isopropoxy-2-(tetrahydro-2H-pyran-4-yl)imidazo[1,2-a]pyridin-6-yl)thiophene-2-carboxamide] |
| 0.001 | CCOc1cc2nc(CC3CCS(=O)(=O)C3)cn2cc1NC(=O)c1cccc(C(F)F)n1 (stereo not shown) [Example 257, 6-(difluoromethyl)-N-(2-((1,1-dioxidotetrahydrothiophen-3-yl)methyl)-7-ethoxyimidazo[1,2-a]pyridin-6-yl)picolinamide] |
| 0.001 | CC(C)Oc1cc2nc(C34CC(F)(C3)C4)cn2cc1NC(=O)c1cccc(C(F)F)n1 [Example 258, 6-(difluoromethyl)-N-(2-(3-fluorobicyclo[1.1.1]pentan-1-yl)-7-isopropoxyimidazo[1,2-a]pyridin-6-yl)picolinamide] |
| 0.002 | COC(=O)C(C)(C)c1cn2cc(NC(=O)c3cccc(C(F)F)n3)c(OC(C)C)cc2n1 [Example 261, methyl 2-(6-(6-(difluoromethyl)picolinamido)-7-isopropoxyimidazo[1,2-a]pyridin-2-yl)-2-methylpropanoate] |
| 0.002 | CC(C)Oc1cc2nc(C(F)F)cn2cc1NC(=O)c1ccn(C(F)F)n1 [Example 267, 1-(difluoromethyl)-N-(2-(difluoromethyl)-7-isopropoxyimidazo[1,2-a]pyridin-6-yl)-1H-pyrazole-3-carboxamide] |
| 0.016 | COc1cc(NC(=O)c2cccc(C(F)F)n2)cn2cc([C@]3(C)C[C@@H](OC)C3)nc12 [Example 271, 6-(difluoromethyl)-N-(8-methoxy-2-((1r*,3r*)-3-methoxy-1-methylcyclobutyl)imidazo[1,2-a]pyridin-6-yl)picolinamide] |
| 0.02 | O=C(Nc1cn2cc(C3CC4(CCOC4)C3)nc2cn1)c1cccc(C(F)F)n1 (stereo not shown) [Example 273, N-(2-(6-oxaspiro[3.4]octan-2-yl)imidazo[1,2-a]pyrazin-6-yl)-6-(difluoromethyl)picolinamide] |
| 0.038 | O=C(Nc1cn2cc(C3CCOCC3)nc2cn1)c1cccc2c1OCC2 [Example 275, N-(2-(tetrahydro-2H-pyran-4-yl)imidazo[1,2-a]pyrazin-6-yl)-2,3-dihydrobenzofuran-7-carboxamide] |
| 0.007 | COCCCc1cn2cc(NC(=O)c3cccc(C(F)F)n3)cc(OC)c2n1 [Example 282, 6-(difluoromethyl)-N-(8-methoxy-2-(3-methoxypropyl)imidazo[1,2-a]pyridin-6-yl)picolinamide] |
